Data as given in article PMC10986609, “Identification of fungal natural products with potent inhibition in Toxoplasma gondii” (Microbiology Spectrum, 2024).
Read-outs that look alike come from different tables or passages of the source. Non-standard residues stand in square brackets, D forms with d. Residues, ends and D or L forms follow the SMILES beside them. *: point of attachment. X1 = CC(C)C[C@@H](CN1CCC[N+]2=C1CCC2)N*; Pip = O=C(O)[C@@H]1CCCCN1; Iva = CC[C@](C)(N)C(=O)O; Aib = CC(C)(N)C(=O)O; βAla = NCCC(=O)O

Experiments:
[1] = tested on: Toxoplasma gondii tachyzoites (RH88); test: microbe, parasite or virus in culture; details: read-out: TgRH88 IC50 (mean ± SEM)
Experimental: (§1) For the initial fixed concentration screening and IC50 determination in T. gondii, we utilized a luciferase expressing RH88 strain to quantify the number of live, actively replicating parasites. To construct this strain, the Fluc and DHFR selection markers had been integrated into the UPRT locus through CRISPR/Cas9, rendering the strain pyrimethamine-resistant ([6]). Screening was performed using a pure compound library provided by the University of Oklahoma Natural Products Discovery Group, containing 683 compounds derived primarily from fungal secondary metabolites. For purposes of testing, HFFs were grown in 96-well microtiter plates in preparation. The media we used to grow cells was referred to a D10 media that was composed of Dulbecco's Modified Eagle Medium (Thermo Fisher; Cat # 11995073), 10% Fetal Bovine Serum (Sigma-Aldrich; Cat # 12306C), 1 × non-essential amino acids (100 ×; Thermo Fisher; Cat # 11140050), HEPES buffer (1M; Fisher Scientific; Cat # SH3023701) at 0.4M, and 10 mg/mL of gentamicin (Fisher Scientific; Cat # 15710072). Compounds were then diluted to 10 µM in 100 µL of fresh D10 media. Each plate utilized artemisinin and DMSO vehicle controls. To each well, 2,500 parasites per 100 µL of D10 media were added. Three technical replicates were then performed. After 48 hours, 160 µL of the D10 media was removed, and plates were subjected to freezing then thawing. Following this, 10 µL of the passive lysis buffer (Promega; Cat# E1910) was added and incubated at room temperature for 15 min. Finally, 100 µL of luciferase assay reagent (Promega; Cat# E1501) was added to each well, and luminescence was measured using a PHERAstar FSX plate reader (BMG Labtech, Germany).
(§2) For IC50 and cytotoxicity determination, we used 384 plates with confluent HFF cells. Compounds were serially diluted 3-fold with a starting concentration of 20 µM. Samples were further diluted by adding an equal volume of media containing 700 parasites. DMSO and […] of KAE609 were used as negative and positive controls, respectively. Assays were performed with a total of three technical replicates and two biological replicates. After incubation for 48 hours, 50 µL of media was removed, and plates were subjected to freezing and thawing. Following this, 10 µL of passive lysis buffer was added and plates were incubated for 15 min at room temperature. Finally, 30 µL of luciferase reagent was added, and the luminescence was measured immediately using a PHERAstar FSX. In parallel, cytotoxicity dose response was performed in the same fashion without the addition of parasites. Cell counting kit-8 reagent (GlpBio; Cat # GK10001) was added at a 1:10 dilution and incubated at 37°C, 5% CO2 for 1 hour. The absorbance was then measured at 450 nm using a PHERAstar FSX. The data management system CDD vault was used for curve fitting and IC50 determination.

[2] = tested on: human foreskin fibroblasts (HFFs); test: HFF cytotoxicity dose response (cell counting kit-8); details: for IC50: read-out: HFF IC50 (mean ± SEM)
Experimental: as §2, with “Samples” for “For IC50 and cytotoxicity determination, we used 384 plates with confluent HFF cells. Compounds were serially diluted 3-fold with a starting concentration of 20 µM. Samples”

[3] = tested on: Toxoplasma gondii tachyzoites (RH88); test: T. gondii fixed concentration screen at 5 µM (luciferase); type: cell-based; details: 48 hours
Experimental: as §1, with “To each well, 2,500 parasites per 100 µL of D10 media were added. Three technical replicates were then performed. After 48 hours, 160 µL of the D10 media was removed, and plates were subjected to freezing then thawing. Following this, 10 µL of the passive lysis buffer (Promega; Cat# E1910) was added and incubated at room temperature for 15 min.” left out

[4] = tested on: Plasmodium falciparum (Dd2); details: read-out: PfDd2 IC50, cited from earlier work
[5] = in vitro; details: human
Experimental: as §2, with “Samples” for “For IC50 and cytotoxicity determination, we used 384 plates with confluent HFF cells. Compounds were serially diluted 3-fold with a starting concentration of 20 µM. Samples”

[6] = tested on: T. gondii; parameters: method as in earlier work; details: 100 µM; cited from earlier work
[7] = mean of duplicate or triplicate experiments
[8] = luciferase expressing RH88 in HFF, 48 hours
[9] = cytotoxicity, no parasites, 48 hours, CCK-8

| Compound | IC50 ([1]; Toxoplasma gondii, 48 h) [nM] | IC50 ([2]; Homo sapiens, Fibroblast, 48 h) [nM] | IC50 [4, 7] [nM] | further results |
| --- | --- | --- | --- | --- |
| C[C@@H]1CC[C@H]2[C@@H](C)C(=O)O[C@@H]3O[C@@]4(C)CC[C@@H]1[C@]32OO4 [Artemisinin, reference compound] | 702 ± 24.7 | 10500 |  | inhibition at 5 µM [3]: 94% |
| COC(=O)[C@@]12Oc3ccc(-c4ccc5c(c4O)C(O)C4=C(O)C[C@H](C)[C@@H](O)[C@]4(C(=O)OC)O5)c(O)c3C(=O)C1=C(O)C[C@H](C)[C@H]2O (some centres unmarked) [compound 130002, Secalonic acid D] | 334 ± 103 | 3730 | 1300 |  |
| COC(=O)C12Oc3c(c(O)cc4c3C3C=CC5(C4)C(=O)c4cc(C)cc(O)c4C(O)=C5C3=O)C(O)=C1C(=O)CCC2O (centres unmarked) [compound 130143, Xanthoquinodin B2] | 131 ± 36.5 | > 20000 | 1010 |  |
| COC(=O)[C@@]12Oc3cc4c(c(O)c3C(=O)C1=C(O)CC[C@@H]2O)[C@@H]1C=C[C@@]2(C4)C(=O)c3cc(C)cc(O)c3C(O)=C2C1=O [compound 130144, Xanthoquinodin A1] | 112 ± 74 | 12900 | 250 | IC50 [5]: 12900 ± 1900 nM |
| COC(=O)[C@]12Oc3cc4c(c(O)c3C(=O)C1=C(O)CC[C@@H]2O)[C@@H]1C=C[C@@]2(C4)C(=O)c3cc(C)cc(O)c3C(O)=C2C1=O [compound 130147, Xanthoquinodin A2] | 56.4 ± 12.8 | 12300 | 680 | IC50 [5]: 12300 ± 300 nM |
| CC[C@](C)(NC(=O)[C@H](CC(C)C)NC(=O)[C@H](C)NC(=O)C(C)(C)NC(=O)[C@@H]1CCCCN1C(=O)C(C)(C)NC(=O)C(C)(C)NC(=O)CNC(=O)CCNC(=O)[C@H](CC(C)C)NC(=O)C(C)(C)NC(=O)C(C)(C)NC(=O)[C@@H]1CCCCN1C(=O)C(C)(C)NC(=O)[C@@H]1CCCCN1C(C)=O)C(=O)N[C@@H](CC(C)C)CN1CCC[N+]2=C1CCC2 [compound 150003, Efrapeptin F] (Ac-[Pip][Aib][Pip][Aib][Aib]L[βAla]G[Aib][Aib][Pip][Aib]AL[Iva]-X1; N-terminus and C-terminus assumed) |  |  |  | IC50 [1, 8]: 55.5 ± 11.8 nM; IC50 [2, 9]: > 20000 nM; IC50 ([4]; ref Lee et al. ([8])): 399 nM |
| CC[C@](C)(NC(=O)[C@H](CC(C)C)NC(=O)[C@H](C)NC(=O)C(C)(C)NC(=O)[C@@H]1CCCCN1C(=O)C(C)(C)NC(=O)C(C)(C)NC(=O)CNC(=O)CCNC(=O)[C@H](CC(C)C)NC(=O)C(C)(C)NC(=O)[C@](C)(CC)NC(=O)[C@@H]1CCCCN1C(=O)C(C)(C)NC(=O)[C@@H]1CCCCN1C(C)=O)C(=O)N[C@@H](CC(C)C)CN1CCC[N+]2=C1CCC2 [compound 150004, Efrapeptin G] (Ac-[Pip][Aib][Pip][Iva][Aib]L[βAla]G[Aib][Aib][Pip][Aib]AL[Iva]-X1; N-terminus and C-terminus assumed) |  |  |  | IC50 [1, 8]: 12.3 ± 2.3 nM; IC50 [2, 9]: > 20000 nM; IC50 ([4]; ref Lee et al. ([8])): 460 nM |
| COC(=O)C1=CC(O)C(O)C(O)C1N1CC(O)C(OC(C)=O)C1Cc1ccc(OC)cc1 (centres unmarked) [compound 150029] | 585 ± 14.6 | 28500 |  | IC50 at 48 h ([5]; confluent human foreskin fibroblast (HFF) cells): 28500 ± 2400 nM |
| CO[C@@H]1[C@H](OC(=O)/C=C/C=C/C=C/C=C/C(=O)O)CC[C@]2(CO2)[C@H]1[C@@]1(C)O[C@@H]1CC=C(C)C [compound 150046, Fumagillin] | 58.8 ± 7.3 | > 20000 | 1310 | IC50 [5]: > 60000 nM; toxicity to HFFs ([2]; highest concentration tested (60 µM)): lack of toxicity |
| COc1c(C[C@@H](C)OC(=O)Oc2ccc(O)cc2)c2c3c(C[C@@H](C)OC(=O)c4ccccc4)c(OC)c(=O)c4c(O)cc(OC)c(c5c(OC)cc(O)c(c1=O)c52)c43 [compound 170068, Calphostin C] | 1140 | > 20000 | 410 |  |
| CC(C)[C@H]1CC[C@@]2(O)COC(=O)[C@H]2[C@@H]1/C=C(\CO)C(=O)O [hydroheptelidic acid, reference compound] |  |  |  | inhibition of T. gondii [6]: no activity |
| Verticillin [compound 130038] |  |  | 501 | IC50 [1, 8]: 79 ± 29.3 nM; IC50 [2, 9]: 82.4 ± 41.8 nM |
